In US20240174625A1, “COMPOSITIONS AND METHODS FOR TREATING TAUOPATHIES” (The Regents of the University of California, priority 2021, published 2024):
“Also recorded” adds a separate entry of the source.

Assays:
[1] = target: Recombinant human (rh) NPEPPS protein (Homo sapiens, UniProt P55786); assay: Cell-free thermal shift (protein stability) assay; format: binding; conditions: concentration-dependent
Experimental: Cell-free thermal shift assay: Recombinant human (rh) NPEPPS protein was diluted in Buffer A (20 mM Tris, 137 mM NaCl, pH 7.5) to a final concentration of 1.25 μM and added to a pre-chilled 384-well microplate (Biorad HSR4801). JMM001, dimethyl sulfoxide (DMSO, Sigma D2650), or NPEPPS inhibitor puromycin dihydrochloride (Sigma P8833) in 1 μl was then added to each well, mixed with gentle aspiration, and incubated with rhNPEPPS for 3 min on ice. SYPRO Orange (Invitrogen S6651) was diluted to 200× concentration in Buffer A and added to each well achieving a final dilution of 1:20, mixed with gentle aspiration. The final assay volume was 20 μl. The plate was sealed followed by a brief spin-down. The samples were analyzed on a Real-time PCR system (Roche LightCycler 480) from 20° C. to 85° C. at a continuous acquisition rate of 5 measurements/° C. and measured at excitation/emission wavelengths of 533/580 nm. Melting temperature is calculated as the lowest derivative of the fluorescence signal as a function of the temperature as previously described^7,18.

[2] = target: T1, NPEPPS (Homo sapiens, UniProt P55786); assay: Cellular thermal shift assay (CETSA) in HEK293T cell lysates; format: binding; conditions: concentration-dependent
T1 construct: endogenous in cells; host or cells: HEK293T
Experimental: Cellular thermal shift analysis (CETSA) was conducted at Pelago Bioscience. Briefly, HEK293T cells were harvested and suspended in an experimental Buffer B (20 mM HEPES, 138 mM NaCl, 5 mM KCl, 2 mM CaCl2), 1 mM MgCl2, pH7.4) at a density of 4×10^7 cells/ml. Cell suspension was lysed by three rounds of freeze-thaw cycles with liquid nitrogen and clarified at 20,000 g for 20 min at 4° C. Compounds diluted to 2× final concentration (final solution contains 1% DMSO) in Buffer B were added to equal volume of clarified cell lysates and incubated at 37° C. for 30 min with continuous rotation. 1% DMSO was used as a negative control in parallel. The treated cell lysates were then divided into 60 μl aliquots and subjected to a 12-step heat challenge between 50° C. and 62° C. for 3 min. For the concentration-dependent analyses, clarified cell lysates in 30 aliquots were mixed with an equal volume of compounds or DMSO in Buffer B at 2× intended compound concentration and incubated at 37° C. for 30 min with continuous rotation. JMM001-treated lysates were then heat challenged at 59° C. as determined from its corresponding cellular thermal shift curve. All treated lysates were immediately centrifugated at 20,000 g for 20 min at 4° C. prior to immunoblotting analysis. […] The obtained intensities were plotted as the luminescence count normalized to a relevant temperature or control count as specified.

[3] = tested on: rhodopsin::EGFP-MAPT transgenic zebrafish expressing the Tau^P301L mutation; assay: Photoreceptor neurodegeneration in a zebrafish model of tauopathy; format: in vivo
Experimental: The rhodopsin::EGFP-MAPT transgenic zebrafish expressing the Tau^P301L mutation is generated and maintained as previously described^22,23. Tau^P301L expression is restricted to the rods of the retina. Photoreceptor image and quantification in central retina sections in the region of the optic nerve head is performed as previously described^2223.

[4] = tested on: Huntingtin; assay: Huntingtin protein level in human primary cortical neurons; format: cell-based; conditions: 50 μM, 48 hrs
Experimental: (§1) FIG. 11. Potential applications of NPEPPS enhancer JMM series on other neurodegenerative diseases. JMM001 (Cp 1) at 50 μM reduces protein levels of huntingtin (htt), SOD1, ataxin, and alpha-synuclein in human primary cortical neurons. Neurons were treated with 50 μM JMM001 or 10 uM bestatin for 48 hrs. N=3-4±SEM.

[5] = tested on: superoxide dismutase 1 (SOD1); assay: SOD1 protein level in human primary cortical neurons; format: cell-based; conditions: 50 μM, 48 hrs
Experimental: as §1

[6] = tested on: ataxin-3; assay: Ataxin-3 protein level in human primary cortical neurons; format: cell-based; conditions: 50 μM, 48 hrs
Experimental: as §1

[7] = tested on: α-synuclein; assay: alpha-synuclein protein level in human primary cortical neurons; format: cell-based; conditions: 50 μM, 48 hrs
Experimental: as §1

[8] = Blood-brain barrier penetration study (brain levels); format: in vivo, mouse; conditions: mice, 20 mg/kg i.p., brain collected at time point of Cmax, compared to JMM001
Description: Adult hTau^P301S homozygous mice (Tg2541Godt mice, a transgenic mouse model of tauopathy carrying a human Tau^P301S mutation^19 and wild-type (WT) littermates on a C57BL/6J background of both genders were used in the in vivo efficacy on Tau histopathology experiments. hTauP301S homozygous mice were obtained as gifts from Dr. Michel Goedert at MRC Laboratory of Molecular Biology, Cambridge, UK and Dr. Stanley Prusiner at UCSF, USA, and were re-derived onto a pure C57BL/6J genetic background by Dr. Prusiner's lab. Mice were periodically outcrossed with WT C57BL/6J mice (Strain #000664) from Jackson Laboratory (Bar Harbor, ME) to maintain genetic diversity. Animals were group-housed in a temperature-controlled facility (73±2° F., 45% humidity, regular 12-hour light/dark cycle, lights on at 7 AM), with food and water ad libitum. All experimental procedures were approved by the ARC administrative office at the University of California Los Angeles (UCLA) and the UCLA institutional animal care and use committee (IACUC) and followed the USDA Animal Welfare Act Regulations, the Public Health Service (PHS) Policy on Humane Care and Use of Laboratory Animals, and the Guide for the Care and Use of Laboratory Animals. Adult male WT mice on a C57BL/6J background (Strain #000664), purchased from Jackson Laboratory (Bar Harbor, ME), were used in the in vivo pharmacokinetics and blood-brain barrier penetration studies. Animals were randomly assigned to experimental groups and tested by experimenters blinded to experimental conditions.
In vivo pharmacokinetics and blood-brain barrier penetration studies are conducted at UCSD-DMPK core following their standard of operation protocols. Briefly, freshly prepared JMM compounds (e.g., JMM001, JMM013, JMM015, JMM052, JMM067, and JMM086) formulated in a vehicle (1:1:1:7 DMSO: Cremophor: Ethanol: Saline) were administered to C57BL/6J mice at 20 mg/kg systemically (i.p., i.v., or p.o.) at various time points (0, 0.5, 1, 2, 4, 8, and 24 hrs post-injection) with five mice per group. Plasma samples were collected, and compound plasma levels were measured using LC/MS. […] Brain samples are then processed following and compound concentrations in the brain sample were measured via LC/MS. Compound brain levels are normalized to the mass of brain in a unit of ng/mg.

Recombinant human (rh) NPEPPS protein, sequence (P55786 whole entry): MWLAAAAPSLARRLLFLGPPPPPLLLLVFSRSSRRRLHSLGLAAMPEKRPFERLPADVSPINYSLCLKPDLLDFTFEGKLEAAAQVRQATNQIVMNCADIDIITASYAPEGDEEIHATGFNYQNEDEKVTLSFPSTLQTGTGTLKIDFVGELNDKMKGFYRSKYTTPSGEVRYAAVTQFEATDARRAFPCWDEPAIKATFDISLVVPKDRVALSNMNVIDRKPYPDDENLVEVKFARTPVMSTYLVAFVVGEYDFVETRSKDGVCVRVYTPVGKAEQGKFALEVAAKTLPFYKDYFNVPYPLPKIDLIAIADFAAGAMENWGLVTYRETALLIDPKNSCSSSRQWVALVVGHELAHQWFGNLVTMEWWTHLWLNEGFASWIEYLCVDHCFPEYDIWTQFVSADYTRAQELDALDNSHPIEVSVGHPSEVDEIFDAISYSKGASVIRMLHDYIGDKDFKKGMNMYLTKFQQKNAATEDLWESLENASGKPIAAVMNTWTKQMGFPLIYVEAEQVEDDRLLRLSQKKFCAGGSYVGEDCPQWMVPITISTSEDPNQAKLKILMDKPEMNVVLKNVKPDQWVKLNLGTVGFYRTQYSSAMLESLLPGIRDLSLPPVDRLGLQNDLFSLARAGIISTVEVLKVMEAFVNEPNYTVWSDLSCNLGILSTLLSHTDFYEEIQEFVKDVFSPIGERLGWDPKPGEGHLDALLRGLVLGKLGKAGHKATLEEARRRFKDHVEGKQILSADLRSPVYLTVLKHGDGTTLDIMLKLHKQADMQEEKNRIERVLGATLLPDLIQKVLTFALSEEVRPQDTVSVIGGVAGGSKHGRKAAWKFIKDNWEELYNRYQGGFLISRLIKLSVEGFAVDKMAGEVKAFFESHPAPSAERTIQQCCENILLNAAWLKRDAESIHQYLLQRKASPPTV
T1 sequence (P55786 whole entry): as above

COc1ccc(CNc2nsc3ccccc23)cc1OC [JMM001]
melting temperature of rhNPEPPS [1]: significant, concentration-dependent increases in melting temperature
thermal shift of NPEPPS [2]: significant thermal shift
photoreceptor degeneration ([3]; 0.01 and 0.03 μM, compared to DMSO control): rescue
retinal photoreceptor degeneration ([3]; 0.01 and 0.05 μM): rescued
protein level of Huntingtin [4]: reduces
protein level of SOD1 [5]: reduces
protein level of ataxin-3 [6]: reduces
protein level of α-synuclein [7]: reduces

c1ccc2c(CNc3nsc4ccccc34)cccc2c1 [JMM013]
brain levels (peak brain concentration) [8]: improved

c1ccc2c(c1)-c1ccccc1C2Nc1nsc2ccccc12 [JMM052]
brain levels (peak brain concentration) ([8]; 20 mg/kg): improved; also recorded: increasing

CN(Cc1ccc(C(F)(F)F)cc1)c1nsc2ccccc12 [JMM067]
brain levels (peak brain concentration) ([8]; 20 mg/kg): improved; also recorded: increasing

c1ccc(COc2ccc(CNc3nsc4ccc(OCc5ccccc5)cc34)cc2)cc1 [JMM083]
brain levels (peak brain concentration) ([8]; 20 mg/kg): improved; also recorded: increasing
